Experimental data taken from patent publication US20060094020A1, “Methods and compositions for determining resistance or susceptibility of HIV-1 to stavudine” (priority 2004, published 2006).

System: HIV-1 (patient-derived viruses comprising the K65R mutation in RT)
Test: Resistance test vector (PHENOSENSE) phenotypic drug susceptibility assay, luciferase readout, single round of replication in 293 cells
Format: cell-based
Details: 1.7 fold is the threshold for d4T resistance
Procedure: In preferred embodiments, the phenotypic analysis of d4T resistance or susceptibility is performed using PHENOSENSE™ (ViroLogic Inc., South San Francisco, Calif.). See Petropoulos et al., 2000, Antimicrob. Agents Chemother. 44:920-928; U.S. Pat. Nos. 5,837,464 and 6,242,187. PHENOSENSE™ is a phenotypic assay that achieves the benefits of phenotypic testing and overcomes the drawbacks of previous assays. Because the assay has been automated, PHENOSENSE™ provides high throughput methods under controlled conditions for determining replication capacity of a large number of individual viral isolates.
The assay can be performed by first co-transfecting host cells with RTV DNA and a plasmid that expresses the envelope proteins of another retrovirus, for example, amphotropic murine leukemia virus (MLV). Following transfection, viral particles can be harvested from the cell culture and used to infect fresh target cells in the presence of varying amounts of anti-viral drug(s). The completion of a single round of viral replication in the fresh target cells can be detected by the means for detecting replication contained in the vector. […] The susceptibility of an HIV, or population of HIV, can be determined by measuring the concentration of antiviral drug at which the luciferase activity detected is half-maximal. […]

Q: With `Cc1cn([C@H]2C=C[C@@H](CO)O2)c(=O)[nH]c1=O` [d4T, stavudine] as the molecule, how does the “IC50 fold higher than wild-type” value (most of the viruses comprising only the K65R mutation in RT (202 viruses)) read?
A: The value was “less than 1.7 fold”.

Q: And the “IC50 fold higher than wild-type” value (some of the viruses comprising only the K65R mutation in RT (202 viruses))?
A: Its value is “greater than 1.7 fold”.
